The numbers were not newly measured in patent US6060616A, “Bis-platinum complexes with polymethylene derivatives as ligands having antitumor activity” (Hoffmann-La Roche Inc., priority 1998, dated 2000), which cites them from elsewhere.

Structures are written as SMILES.

The conditions of this series: clinical use, background.

As for `N.N.O=C([O-])C1(C(=O)[O-])CCC1.[Pt+2]` [carboplatin, [Pt(NH3)2(CBDCA)]], the nephrotoxicity entry is on record as “reduction in the nephrotoxic effects”.
